The source of these data is patent US7234365B2, “Methods and systems for dissolution testing” (Symyx Technologies, Inc., priority 2003, dated 2007).

The nature of data set [1]: High throughput dissolution screening of Aspirin. The data set is classed as physicochemical. As to conditions: 10 mg powdered Aspirin in 10 ml deionized water, shaker, UV detector, 37 second sampling frequency for 30 minutes, FIG. 7. How it is done: A 10 mg of powdered Aspirin standard from Aldrich was weighted into a 20 ml scintillation vial and put on a shaker at a robot platform. The shaker was then turned on and an automated dispensing unit with a 10 ml syringe dispensed 10 ml of deionized water into the 20 ml scintillation vial containing the 10 mg of Aspirin thereby initiating dissolution of the 10 mg of Aspirin into the 10 ml of deionized water to form, over time, a solution having an increasing concentration of aspirin.
Thereafter, an automated sampling unit aspirated approximately 300 μL of the solution (the sample itself never enters the syringe) through an in-line filter allowing a sampled aliquot of the filtered solution to enter a switching valve and fill a 20 μL sample loop connected to the ports of the switching valve. Once the 20 μL sample loop was filled with a portion of the aliquot, the switching valve was switched to a second position by automation, causing the sub-aliquot contained in the 20 μL sample loop to be discharged into an analytical unit. The analytical unit comprised a syringe pump and an UV detector, for determining concentration. At this point, the automated sampling unit returned the remainder portion of the filtered aliquot back through the filter and back into the solution contained in the scintillation vial. […]

For data set [2] the following is noted: addition of viscogens such as glycerol or Ficoll; cited from earlier work.

As to `CC(=O)Oc1ccccc1C(=O)O` [Aspirin], the “time to reach maximum dissolution” value in data set [1] was “less than 10 minutes”.
As for Vitamin-B12, the photo stability result in data set [2] is “increase in photo stability”.
